According to patent US12390483B2, “Compounds and methods for treating neurological and cardiovascular conditions” (Astrocyte Pharmaceuticals, Inc., priority 2016, dated 2025):
Like-named read-outs stand apart in the source and are kept apart here.

Tests used:
[1] = Stability of MRS2365 incubated in phosphate-buffered saline; type: physicochemical
[2] = Previous in vivo pharmacokinetic assessments of MRS2365 in mice; conditions: heparin as blood anticoagulant for plasma preparation, initial assessments
[3] = Pharmacokinetics of MRS4322 following intraperitoneal administration to mice (plasma and brain concentrations); type: in vivo; conditions: MRS4322 […] i.p.; for Plasma Concentration Mean / Plasma Concentration by Subject: BLQ = below 2.40 ng/mL; for Brain Concentration Mean / Brain Concentration by Subject: BLQ = below 9.64 ng/g; for Plasma Concentration by Subject / Brain Concentration by Subject: subjects A-C
Method: Animals: Female C576BL/6J mice weighing approximately 0.02 kg were used for this study, supplied by the University of Texas Health Sciences Center (San Antonio, TX). All studies were conducted under approved University of Texas Health Sciences Center IACUC protocols.
Drug Administration: MRS4322 was solubilized in DMSO and then diluted in saline to prepare dosing solution. Final dosing solution concentration of MRS4322 was 100 μM. A 100 μL volume of dosing solution was administered intraperitoneally to each mouse per 20 gram body weight; MRS4322 was administered intraperitoneally at 0.16 mg/kg or 0.5 μmol/kg. Three mice were administered MRS4322 for each sampling timepoint.
Tissue Sampling: Blood and brain samples were obtained at 0, 0.083, 0.25, 0.5, 1, 2 and 8 hours post-dose. At each timepoint, mice (3/timepoint) were euthanized in a […] chamber. Whole blood was obtained by cardiac puncture into Microtainer tubes containing heparin and immediately centrifuged for preparation of plasma; plasma was stored at −80° C. At each timepoint, whole brain samples were obtained by decapitation, rinsed in ice-cold phosphate-buffered saline and weighed. Brain samples were then immediately flash-frozen in liquid nitrogen and stored at −80° C.
(§1) The following table outlines the LC and MS/MS conditions employed:
The calibration range for the MRS4322 plasma concentration standard curve was 2.42-242 ng/mL. The calibration range for MRS4322 brain concentrations was 2.41-233 ng/mL.
For bioanalysis of brain concentrations of MRS4322, brain samples were homogenized in ice-cold phosphate-buffered saline in a 4× dilution. Aliquots of the resulting diluted brain homogenate were treated with acetonitrile and analyzed by LC-MS/MS. Because of the 4× homogenate dilution, the calibration range of the MRS4322 brain standard curve was translated to 9.64-932 ng/gm. In several samples, MRS4322 was detectable but fell below the brain LLOQ of 9.64 ng/gm but were above background; in these cases the final reported brain concentration was extrapolated based on MS peak heights.

[4] = Pharmacokinetics of MRS4322 following intravenous administration to neonatal pigs; type: in vivo; conditions: 0.2 mg/kg IV; for C0: 0.2 mg/kg, neonatal pig plasma, individual animals
Method: Animals. Four-week old female neonatal pigs weighing approximately 7.5 Kg were used for this study, supplied by the Department of Bioengineering, University of Pennsylvania (Philadelphia, PA). Animals were equipped with brain microdialysis probes to obtain brain extracellular fluid samples for drug concentration determinations during the study. All studies were conducted under approved University of Pennsylvania IACUC protocols.
Drug Administration: MRS4322 was solubilized in DMSO and then diluted in saline to prepare dosing solution. A 10 mL volume of dosing solution was administered by intravenous bolus administration to each neonatal pig (n=3).
Tissue Sampling: Blood samples were obtained at 0.25, 0.5, 1, 2, 4 and 6 hours post-dose. Brain extracellular fluid samples were obtained from implanted microdialysis probes at 1, 4 and 6 hours post-dose. Whole blood (1 mL) was obtained at each timepoint and placed in vacutainer tubes containing heparin and immediately centrifuged for preparation of plasma; plasma was stored at −80° C. Brain extracellular and cerebrospinal fluid samples were stored at −80° C. At the time of euthanasia (6 hours post-dose), cerebrospinal fluid samples were obtained and frozen, while brain samples from the cortex and hippocampus were obtained by decapitation, rinsed in ice-cold phosphate-buffered saline and weighed. Brain samples were then immediately flash-frozen in liquid nitrogen and stored at −80° C.
as §1
The calibration ranges for all of the MRS4322 matrice's standard curves were 0.1-1000 ng/mL.
For bioanalysis of brain concentrations of MRS4322, brain samples were homogenized in ice-cold phosphate-buffered saline in a 4× dilution. Aliquots of the resulting diluted brain homogenate were treated with acetonitrile and analyzed by LC-MS/MS.

A3 receptor = target: T1, A3 receptor (Mus musculus, UniProt Q61618); test: Affinity at the A3 receptor in the mouse as stated in the discussion; type: binding
T1 sequence (Q61618 1-319): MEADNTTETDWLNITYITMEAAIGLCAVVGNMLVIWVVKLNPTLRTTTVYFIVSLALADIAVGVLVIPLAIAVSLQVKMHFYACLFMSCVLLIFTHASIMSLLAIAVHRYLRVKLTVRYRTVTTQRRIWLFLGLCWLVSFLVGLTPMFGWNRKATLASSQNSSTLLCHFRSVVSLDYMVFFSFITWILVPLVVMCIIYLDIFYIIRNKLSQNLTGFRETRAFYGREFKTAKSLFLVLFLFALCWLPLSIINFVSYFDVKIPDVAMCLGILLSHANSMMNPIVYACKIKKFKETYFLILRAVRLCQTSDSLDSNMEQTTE

SMILES	stability in phosphate-buffered saline [1]	in vivo clearance [2]	Plasma Concentration Mean ([3]; 0 h)	Brain Concentration Mean ([3]; 0 h)	Plasma Concentration by Subject ([3]; 0 h)	Brain Concentration by Subject ([3]; 0 h)	Brain Concentration Mean ([3]; 1 h)	Brain Concentration by Subject ([3]; 1 h)	Brain Concentration Mean ([3]; 2 h)	Brain Concentration by Subject ([3]; 2 h)	Plasma Concentration Mean ([3]; 8 h)	Brain Concentration Mean ([3]; 8 h)	Plasma Concentration by Subject ([3]; 8 h)	Brain Concentration by Subject ([3]; 8 h)	C0 ([4]; female, pig, plasma, iv, read-out: C0)	C0 [4]	Plasma Concentration by Subject ([4]; neonatal pigs, 0 h, individual subjects, BLQ = below 0.0975 ng/mL)	Plasma Concentration Mean ([4]; neonatal pigs, 0 h, BLQ = below 0.0975 ng/mL)	difference in affinity between MRS4322 and Cl-IB-MECA (A3 receptor)
CSc1nc(N)c2ncn([C@H]3[C@H](O)[C@H](O)[C@]4(COP(=O)(O)OP(=O)(O)O)C[C@H]34)c2n1 [MRS2365]	completely stable	rapidly cleared at a rate approximating cardiac output	–	–	–	–	–	–	–	–	–	–	–	–	–	–	–	–	–
CSc1nc(N)c2ncn([C@H]3[C@H](O)[C@H](O)[C@]4(CO)C[C@H]34)c2n1 [MRS4322]	–	–	BLQ	BLQ	BLQ	BLQ	BLQ	BLQ	BLQ	BLQ	BLQ	BLQ	BLQ	BLQ	0.266 µg/mL	0.269 µg/mL	BLQ	BLQ	approximately 25,000 fold
